The text below walks through data of patent US9765105B2, “Macrolide compound” (Pulike Biological Engineering, Inc., priority 2013, dated 2017).

What all share (assay): in vitro susceptibility, MIC by mini broth dilution
Common to all, as to assay type: cell-based
(In general: Broth dilution looks for growth in wells or tubes with falling amounts of substance.)

Assay [1] relates to Streptococcus equines CVCC556. The note with it: strain CVCC556. An outline of the steps:
(§1)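 Veterinary bacterial strains were grown twice on solid medium at 35 °C for 20 h. Inocula were diluted 1:200 in broth and tested against 11 two-fold compound dilutions (DMSO), in paired rows, by mini broth dilution per NCCLS guidance. MIC was the readout.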

Assay [2] relates to Actinobacillus pleuropneumoniae CVCC262. To be noted: strain CVCC262. An outline of the steps: as §1
Assay [3] concerns Pasteurella multocida CVCC399. The note with it: strain CVCC399. In short, it runs like this: as §1
Assay [4] has as its system Haemophilus parasuis. In short, it runs like this: as §1
The subject of assay [5] is Staphylococcus aureus CVCC26003. To be noted: strain CVCC26003. In short, it runs like this: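 S. aureus CVCC26003 was revived and subcultured twice, 20 h each at 35° C, on solid medium, then diluted 1:200 in CAMHB liquid medium. Compounds received an 11-step two-fold DMSO dilution in parallel duplicate rows. MIC was read by mini broth dilution per NCCLS guidance.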

Molecules are shown by their SMILES.

Turning to `CCCN1C[C@H](C)[C@@H](O)[C@](C)(O)[C@@H](CC)OC(=O)[C@H](C)[C@@H](O[C@H]2C[C@@](C)(OC)[C@](O)(CNCCc3ccc(S(N)(=O)=O)cc3)[C@H](C)O2)[C@H](C)[C@@H](O[C@@H]2O[C@H](C)C[C@H](N(C)C)[C@H]2O)[C@](C)(O)C[C@H]1C` [syzx-161], the “MIC values, Streptococcus equines CVCC556” value in assay [1] turned out to be 0.25 ug/mi. Also, the “MIC values, Actinobacillus pleuropneumoniae CVCC262” value in assay [2] turned out to be 0.25 ug/mi. In addition, in assay [3], the “MIC values, Pasteurella multocida CVCC399” value was 0.5 ug/mi. Also, in assay [4], the “MIC values, Haemophilus parasuis” value came out at 0.25 ug/mi. In addition, the “MIC values, Staphylococcus aureus CVCC26003” value in assay [5] is reported as 0.25 ug/mi.
`C#CC=C(C)NC[C@]1(O)[C@H](C)O[C@@H](O[C@H]2[C@H](C)[C@@H](O[C@@H]3O[C@H](C)C[C@H](N(C)C)[C@H]3O)[C@](C)(O)C[C@@H](C)N(CCC)C[C@H](C)[C@@H](O)[C@](C)(O)[C@@H](CC)OC(=O)[C@@H]2C)C[C@@]1(C)OC` [syzx-162]: in assay [1], the “MIC values, Streptococcus equines CVCC556” value worked out at 0.25 ug/mi. In assay [2], the “MIC values, Actinobacillus pleuropneumoniae CVCC262” value was 0.25 ug/mi. Further, the “MIC values, Pasteurella multocida CVCC399” value in assay [3] was determined as 1 ug/mi. In addition, in assay [4], the “MIC values, Haemophilus parasuis” value was determined as 0.25 ug/mi. In addition, the “MIC values, Staphylococcus aureus CVCC26003” value in assay [5] stood at 0.25 ug/mi.
Take `CCCC(C)NC[C@]1(O)[C@H](C)O[C@@H](O[C@H]2[C@H](C)[C@@H](O[C@@H]3O[C@H](C)C[C@H](N(C)C)[C@H]3O)[C@](C)(O)C[C@@H](C)N(CCC)C[C@H](C)[C@@H](O)[C@](C)(O)[C@@H](CC)OC(=O)[C@@H]2C)C[C@@]1(C)OC` (stereo partly drawn) [syzx-163]: the “MIC values, Streptococcus equines CVCC556” value in assay [1] came out at 0.25 ug/mi. In addition, in assay [2], the “MIC values, Actinobacillus pleuropneumoniae CVCC262” value was 0.25 ug/mi. In addition, the “MIC values, Pasteurella multocida CVCC399” value in assay [3] came to 1 ug/mi. The “MIC values, Haemophilus parasuis” value in assay [4] was 0.25 ug/mi. For the same molecule, the “MIC values, Staphylococcus aureus CVCC26003” value in assay [5] stood at 0.25 ug/mi.
Consider `CCCN1C[C@H](C)[C@@H](O)[C@](C)(O)[C@@H](CC)OC(=O)[C@H](C)[C@@H](O[C@H]2C[C@@](C)(OC)[C@](O)(CNCCc3ccncc3)[C@H](C)O2)[C@H](C)[C@@H](O[C@@H]2O[C@H](C)C[C@H](N(C)C)[C@H]2O)[C@](C)(O)C[C@H]1C` [syzx-164], for which the “MIC values, Streptococcus equines CVCC556” value in assay [1] is listed as 0.5 ug/mi. The “MIC values, Actinobacillus pleuropneumoniae CVCC262” value in assay [2] is reported as 0.25 ug/mi. Besides, the “MIC values, Pasteurella multocida CVCC399” value in assay [3] is 2 ug/mi. In addition, the “MIC values, Haemophilus parasuis” value in assay [4] was found to be 0.25 ug/mi. The “MIC values, Staphylococcus aureus CVCC26003” value in assay [5] was found to be 0.25 ug/mi.
In the case of `CCCN1C[C@H](C)[C@@H](O)[C@](C)(O)[C@@H](CC)OC(=O)[C@H](C)[C@@H](O[C@H]2C[C@@](C)(OC)[C@](O)(CNCc3cnc(C)cn3)[C@H](C)O2)[C@H](C)[C@@H](O[C@@H]2O[C@H](C)C[C@H](N(C)C)[C@H]2O)[C@](C)(O)C[C@H]1C` [syzx-165], in assay [1], the “MIC values, Streptococcus equines CVCC556” value was determined as 0.25 ug/mi. The “MIC values, Actinobacillus pleuropneumoniae CVCC262” value in assay [2] was found to be 0.25 ug/mi. The “MIC values, Pasteurella multocida CVCC399” value in assay [3] amounted to 1 ug/mi. Also, in assay [4], the “MIC values, Haemophilus parasuis” value was 0.25 ug/mi. Further, the “MIC values, Staphylococcus aureus CVCC26003” value in assay [5] is 0.25 ug/mi.
In the case of `CCCN1C[C@H](C)[C@@H](O)[C@](C)(O)[C@@H](CC)OC(=O)[C@H](C)[C@@H](O[C@H]2C[C@@](C)(OC)[C@](O)(CNCC3CCCCC3)[C@H](C)O2)[C@H](C)[C@@H](O[C@@H]2O[C@H](C)C[C@H](N(C)C)[C@H]2O)[C@](C)(O)C[C@H]1C` [syzx-167], the “MIC values, Streptococcus equines CVCC556” value in assay [1] amounted to 0.25 ug/mi. The “MIC values, Actinobacillus pleuropneumoniae CVCC262” value in assay [2] is on record as 2 ug/mi. For the same molecule, in assay [3], the “MIC values, Pasteurella multocida CVCC399” value amounted to 4 ug/mi. For the same molecule, in assay [4], the “MIC values, Haemophilus parasuis” value is 2 ug/mi. For the same molecule, in assay [5], the “MIC values, Staphylococcus aureus CVCC26003” value is on record as 2 ug/mi.
With `CCCN1C[C@H](C)[C@@H](O)[C@](C)(O)[C@@H](CC)OC(=O)[C@H](C)[C@@H](O[C@H]2C[C@@](C)(OC)[C@](O)(CNc3ccccc3F)[C@H](C)O2)[C@H](C)[C@@H](O[C@@H]2O[C@H](C)C[C@H](N(C)C)[C@H]2O)[C@](C)(O)C[C@H]1C` [syzx-168], the “MIC values, Streptococcus equines CVCC556” value in assay [1] was determined as 0.25 ug/mi. Also, in assay [2], the “MIC values, Actinobacillus pleuropneumoniae CVCC262” value came out at 0.25 ug/mi. Moreover, the “MIC values, Pasteurella multocida CVCC399” value in assay [3] came out at 1 ug/mi. The “MIC values, Haemophilus parasuis” value in assay [4] is 0.25 ug/mi. For the same molecule, the “MIC values, Staphylococcus aureus CVCC26003” value in assay [5] amounted to 0.25 ug/mi.
In the case of `CCCN1C[C@H](C)[C@@H](O)[C@](C)(O)[C@@H](CC)OC(=O)[C@H](C)[C@@H](O[C@H]2C[C@@](C)(OC)[C@](O)(CNCCCN3CCOCC3)[C@H](C)O2)[C@H](C)[C@@H](O[C@@H]2O[C@H](C)C[C@H](N(C)C)[C@H]2O)[C@](C)(O)C[C@H]1C` [syzx-169], the “MIC values, Streptococcus equines CVCC556” value in assay [1] is listed as 0.25 ug/mi. Also, the “MIC values, Actinobacillus pleuropneumoniae CVCC262” value in assay [2] was 0.25 ug/mi. In addition, the “MIC values, Pasteurella multocida CVCC399” value in assay [3] was determined as 0.5 ug/mi. The “MIC values, Haemophilus parasuis” value in assay [4] was 0.25 ug/mi. In assay [5], the “MIC values, Staphylococcus aureus CVCC26003” value was determined as 0.25 ug/mi.
Consider `CCCN1CC(C)C(O)C(C)(O)C(CC)OC(=O)C(C)C(OC2CC(C)(OC)C(O)(CNNc3ccccc3)C(C)O2)C(C)C(OC2OC(C)CC(N(C)C)C2O)C(C)(O)CC1C` (stereo not drawn) [syzx-173], for which the “MIC values, Streptococcus equines CVCC556” value in assay [1] stood at 0.25 ug/mi. Besides, the “MIC values, Actinobacillus pleuropneumoniae CVCC262” value in assay [2] is listed as 1 ug/mi. Also, the “MIC values, Pasteurella multocida CVCC399” value in assay [3] came to 4 ug/mi. The “MIC values, Haemophilus parasuis” value in assay [4] stood at 1 ug/mi. For the same molecule, the “MIC values, Staphylococcus aureus CVCC26003” value in assay [5] worked out at 2 ug/mi.
`CCCN1C[C@H](C)[C@@H](O)[C@](C)(O)[C@@H](CC)OC(=O)[C@H](C)[C@@H](O[C@H]2C[C@@](C)(OC)[C@](O)(CNCCc3c[nH]c4ccccc34)[C@H](C)O2)[C@H](C)[C@@H](O[C@@H]2O[C@H](C)C[C@H](N(C)C)[C@H]2O)[C@](C)(O)C[C@H]1C` [syzx-174]: the “MIC values, Streptococcus equines CVCC556” value in assay [1] is recorded as 0.25 ug/mi. Also, the “MIC values, Actinobacillus pleuropneumoniae CVCC262” value in assay [2] is 4 ug/mi. In addition, in assay [3], the “MIC values, Pasteurella multocida CVCC399” value came to 8 ug/mi. For the same molecule, in assay [4], the “MIC values, Haemophilus parasuis” value stood at 2 ug/mi. Further, the “MIC values, Staphylococcus aureus CVCC26003” value in assay [5] is listed as 4 ug/mi.
Turning to `CCCN1C[C@H](C)[C@@H](O)[C@](C)(O)[C@@H](CC)OC(=O)[C@H](C)[C@@H](O[C@H]2C[C@@](C)(OC)[C@](O)(CNCCCCl)[C@H](C)O2)[C@H](C)[C@@H](O[C@@H]2O[C@H](C)C[C@H](N(C)C)[C@H]2O)[C@](C)(O)C[C@H]1C` [syzx-175], the “MIC values, Streptococcus equines CVCC556” value in assay [1] is on record as 0.5 ug/mi. For the same molecule, the “MIC values, Actinobacillus pleuropneumoniae CVCC262” value in assay [2] was found to be 0.25 ug/mi. Besides, the “MIC values, Pasteurella multocida CVCC399” value in assay [3] came out at 0.5 ug/mi. For the same molecule, the “MIC values, Haemophilus parasuis” value in assay [4] was determined as 0.25 ug/mi. For the same molecule, the “MIC values, Staphylococcus aureus CVCC26003” value in assay [5] stood at 0.5 ug/mi.
As for `CCCN1C[C@H](C)[C@@H](O)[C@](C)(O)[C@@H](CC)OC(=O)[C@H](C)[C@@H](O[C@H]2C[C@@](C)(OC)[C@](O)(CNc3cc(OC)cc(OC)c3)[C@H](C)O2)[C@H](C)[C@@H](O[C@@H]2O[C@H](C)C[C@H](N(C)C)[C@H]2O)[C@](C)(O)C[C@H]1C` [syzx-176], the “MIC values, Streptococcus equines CVCC556” value in assay [1] was determined as 0.25 ug/mi. In addition, the “MIC values, Actinobacillus pleuropneumoniae CVCC262” value in assay [2] was determined as 0.25 ug/mi. The “MIC values, Pasteurella multocida CVCC399” value in assay [3] is 2 ug/mi. The “MIC values, Haemophilus parasuis” value in assay [4] worked out at 0.5 ug/mi. In addition, the “MIC values, Staphylococcus aureus CVCC26003” value in assay [5] stood at 0.5 ug/mi.
